Data published in US12447159B2 (AELIS FARMA, priority 2018, dated 2025).
Like-named read-outs stand apart in the source and are kept apart here.

Assays:
[1] = biological target: CYP 2C9 (Homo sapiens, UniProt P11712); test: CYP inhibition in human liver microsomes; conditions: 10 μM
Text: (§1) Reaction was initiated by adding NADPH-generating compounds and after stopping of reaction and samples treatment; HPLC-UV/VIS and HPLC-MS/MS detection were used for detection of peak areas corresponding to the metabolite of each substrate.

[2] = system: testosterone, DHEA and allopregnanolone; test: Conversion in downstream steroids, rats (GC/MS-MS); assay type: in vivo; conditions: male and female rats; acute or repeated (28 days) 2, 9 and 36 mg/kg
Method: In all these studies plasma concentrations of steroids were measured by gas chromatography-tandem mass spectrometry (GC/MS-MS).

[3] = in vitro; assay type: in vitro ADME, monkeys; conditions: monkey
[4] = biological target: P-gp (Homo sapiens, UniProt P08183); test: Cellular transporter inhibition, MDR1-MDCKII cells (fluorometry); conditions: 10 μM
Method: (§2) Chinese Hamster Ovary (CHO) were used for all transporters except for P-gp that was studied in Madin-Darby Canine Kidney (MDR1-MDCKII) cells. The inhibition of the activity of each transporter is evaluated by measuring changes in the transport of their specific substrates by fluorometry.

[5] = system: conscious rats; test: Respiration in the unrestrained conscious rat (whole body plethysmography, GLP); conditions: 2, 9 and 36 mg/kg, single oral
Method: The day prior to the study, animals were only allowed to drink water. On the study day, animals were placed in the plethysmograph and measurements started immediately afterwards. The whole body plethysmography method measure in a closed chamber variations in air flow due to thoracic cage movements during respiration and enables the measurement of respiratory parameters in the conscious animal, totally free to move about. […] Respiration was recorded for a total period of 6 hours following the dosing. Respiratory parameters were determined from analysis of respiratory cycles.

[6] = biological target: OAT3 (Homo sapiens, UniProt Q8TCC7); test: Cellular transporter inhibition, CHO cells (fluorometry); conditions: 10 μM
Method: as §2

[7] = system: diet-induced obese (DIO) mouse model; test: Repeated treatment: food intake and body weight in diet-induced obese (DIO) mice; assay type: in vivo; conditions: vs vehicle; Rimo 10 mg/kg ip; 3pMBP 0.005-15 mg/kg per os
[8] = system: THC-induced increase in food intake; test: THC-induced increase in food intake (fasting-refeeding model); assay type: in vivo; conditions: mice
Method: The effects of THC on food intake were studied using the fasting-refeeding model (Bellochio et al., 2010) in CB1^f/f male mice. […] Food intake was measured for one hour. Independent groups of animals (at least n=8 per group) were used for each treatment condition.

[9] = Distribution in the brain of mice; assay type: in vivo
[10] = Metabolic stability in dog liver microsomes (DLM); assay type: in vitro ADME; conditions: dog LM, NADPH
Method: The investigation was performed on liver microsomes (LM) coming from mouse (MLM), rat (RLM), dog (DLM) and human (HLM).
3pMBP was incubated with liver microsome pools supplemented with NADPH as cofactor. Samples were taken at 5 different times (0, 10, 20, 30 and 60 minutes) and samples were monitored for parent compound disappearance in MRM mode using LC/MS-MS. The Intrinsic Clearance and half-life have been determined. Verapamil was used as reference compound.

[11] = Pharmacokinetics in plasma of dogs (LC/MS-MS); assay type: in vivo; conditions: for T1/2: manual linear regression on the last three points
[12] = Distribution in the brain of rats; assay type: in vivo; conditions: rat, oral, 1.6 mg/kg, per os
Method: Distribution of 3pMBP in the brain was studied in mice and rats. In dogs, 3pMBP was also administered intravenously after solubilisation in cyclodextrine.

[13] = biological target: T1, hERG current (Homo sapiens, UniProt Q12809); test: hERG tail current in stably transfected HEK-293 cells (GLP); assay type: cell-based; conditions: 100 nM, 1 μM and 10 μM
T1 construct: expressed in transfected cells; host or cells: HEK-293
Method: E-4031 was used as positive control and was tested in one separate HEK-293 cell to support the validity of the method used.
Cells were clamped to −80 mV, depolarised to 0 mV for 5 sec allowing activation of hERG current and repolarised to −50 mV for 5 sec allowing hERG tail current to deactivate. This experimental procedure was repeated at a frequency of 0.06 Hz. Currents were filtered at 1 kHz and acquired at the frequency of 2 kHz. Amplitude of hERG tail current was measured during the repolarizing pulse from 0 to −50 mV. […] Currents were measured before and after exposure to the test item.

[14] = biological target: T2, human CB1 (hCB1) receptor (Homo sapiens, UniProt P21554); test: THC-induced increase in MAPK phosphorylation, HEK-293 cells transiently transfected with hCB1 (western blot, P-MAPK/MAPK); assay type: cell-based; conditions: THC 10 μM, 5 min; HEK-293 transiently expressing the hCB1
T2 construct: expressed in transfected cells; host or cells: HEK-293
Method: The difference in the concentrations of THC used in the two experiments is related to the different efficiency of transfection of hCB1 cDNA plasmid, which is stable in Experiment 1 and transient in Experiment 2.
MAPK phosphorylation (P-Erk1/2MAPK proteins) was measured by western blot. In experiment 1 the mitochondrial marker CoxIV and in experiment 2 the un-phosphorylated MAPK proteins were used as loading controls. The P-MAPK/CoxIV and P-MAPK/MAPK ratios were calculated and the data expressed as % of vehicle-treated cells.

[15] = biological target: CYP 2B6 (Homo sapiens, UniProt P20813); test: CYP inhibition in human liver microsomes; conditions: 10 μM
Text: as §1

[16] = per os 3 h before THC 1 mg/kg ip

T2 sequence (P21554 whole entry): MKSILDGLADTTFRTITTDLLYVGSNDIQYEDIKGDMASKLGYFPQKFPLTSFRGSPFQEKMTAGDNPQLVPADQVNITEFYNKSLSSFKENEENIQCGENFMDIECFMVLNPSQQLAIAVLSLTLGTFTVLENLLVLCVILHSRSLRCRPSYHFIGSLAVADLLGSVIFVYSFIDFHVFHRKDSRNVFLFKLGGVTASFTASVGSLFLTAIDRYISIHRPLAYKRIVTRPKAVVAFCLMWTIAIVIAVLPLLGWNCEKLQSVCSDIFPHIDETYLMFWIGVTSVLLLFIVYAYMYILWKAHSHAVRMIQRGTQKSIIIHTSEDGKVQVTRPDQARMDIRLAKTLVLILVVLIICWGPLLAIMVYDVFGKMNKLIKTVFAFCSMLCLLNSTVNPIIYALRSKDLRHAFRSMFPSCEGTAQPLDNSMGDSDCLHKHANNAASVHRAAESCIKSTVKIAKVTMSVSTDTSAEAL
Sequence of P-gp (P08183 whole entry): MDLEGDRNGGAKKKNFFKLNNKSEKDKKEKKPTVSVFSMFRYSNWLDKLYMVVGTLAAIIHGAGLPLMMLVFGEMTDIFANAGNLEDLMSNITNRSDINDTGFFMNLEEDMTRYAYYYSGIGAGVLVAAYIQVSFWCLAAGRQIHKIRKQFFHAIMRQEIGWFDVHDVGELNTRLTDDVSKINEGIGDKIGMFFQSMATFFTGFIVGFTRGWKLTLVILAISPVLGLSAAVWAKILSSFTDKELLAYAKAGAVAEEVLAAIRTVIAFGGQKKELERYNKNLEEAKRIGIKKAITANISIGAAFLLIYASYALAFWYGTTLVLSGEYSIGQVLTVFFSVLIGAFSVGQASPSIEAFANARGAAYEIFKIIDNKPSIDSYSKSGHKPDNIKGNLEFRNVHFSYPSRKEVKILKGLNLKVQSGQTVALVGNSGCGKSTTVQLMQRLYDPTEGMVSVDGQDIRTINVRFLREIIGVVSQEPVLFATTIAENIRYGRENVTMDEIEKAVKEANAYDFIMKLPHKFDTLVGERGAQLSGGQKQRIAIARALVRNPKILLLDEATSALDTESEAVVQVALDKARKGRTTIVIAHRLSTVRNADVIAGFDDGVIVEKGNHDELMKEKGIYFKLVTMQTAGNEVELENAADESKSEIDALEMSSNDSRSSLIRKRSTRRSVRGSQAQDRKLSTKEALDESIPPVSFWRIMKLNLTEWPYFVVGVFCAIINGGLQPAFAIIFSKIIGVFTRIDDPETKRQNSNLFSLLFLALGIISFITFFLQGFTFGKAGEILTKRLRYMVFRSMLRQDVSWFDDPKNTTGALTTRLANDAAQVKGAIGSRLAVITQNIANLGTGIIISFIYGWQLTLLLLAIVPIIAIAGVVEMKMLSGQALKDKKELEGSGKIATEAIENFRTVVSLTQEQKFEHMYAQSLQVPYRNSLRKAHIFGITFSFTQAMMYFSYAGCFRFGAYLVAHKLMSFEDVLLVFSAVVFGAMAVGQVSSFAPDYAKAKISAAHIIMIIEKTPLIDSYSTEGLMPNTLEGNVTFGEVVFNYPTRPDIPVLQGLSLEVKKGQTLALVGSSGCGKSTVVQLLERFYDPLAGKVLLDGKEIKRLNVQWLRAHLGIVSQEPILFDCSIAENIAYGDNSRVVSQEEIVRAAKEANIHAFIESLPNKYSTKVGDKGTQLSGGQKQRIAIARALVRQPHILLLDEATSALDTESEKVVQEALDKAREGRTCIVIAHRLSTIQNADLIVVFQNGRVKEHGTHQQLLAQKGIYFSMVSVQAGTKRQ
Sequence of OAT3 (Q8TCC7 whole entry): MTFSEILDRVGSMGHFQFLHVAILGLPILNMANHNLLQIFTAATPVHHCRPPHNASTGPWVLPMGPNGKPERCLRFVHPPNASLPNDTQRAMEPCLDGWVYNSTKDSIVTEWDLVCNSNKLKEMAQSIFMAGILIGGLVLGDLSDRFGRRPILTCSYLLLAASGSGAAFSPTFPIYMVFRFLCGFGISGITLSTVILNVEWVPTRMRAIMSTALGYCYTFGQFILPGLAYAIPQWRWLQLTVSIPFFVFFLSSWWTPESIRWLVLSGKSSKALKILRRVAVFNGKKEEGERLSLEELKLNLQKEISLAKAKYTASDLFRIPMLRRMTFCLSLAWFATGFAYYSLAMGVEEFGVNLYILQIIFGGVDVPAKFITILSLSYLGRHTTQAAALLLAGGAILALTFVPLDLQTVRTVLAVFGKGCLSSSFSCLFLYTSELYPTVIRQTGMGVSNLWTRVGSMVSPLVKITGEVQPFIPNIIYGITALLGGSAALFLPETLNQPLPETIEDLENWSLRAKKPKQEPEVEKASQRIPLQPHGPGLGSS
Sequence of CYP 2B6 (P20813 whole entry): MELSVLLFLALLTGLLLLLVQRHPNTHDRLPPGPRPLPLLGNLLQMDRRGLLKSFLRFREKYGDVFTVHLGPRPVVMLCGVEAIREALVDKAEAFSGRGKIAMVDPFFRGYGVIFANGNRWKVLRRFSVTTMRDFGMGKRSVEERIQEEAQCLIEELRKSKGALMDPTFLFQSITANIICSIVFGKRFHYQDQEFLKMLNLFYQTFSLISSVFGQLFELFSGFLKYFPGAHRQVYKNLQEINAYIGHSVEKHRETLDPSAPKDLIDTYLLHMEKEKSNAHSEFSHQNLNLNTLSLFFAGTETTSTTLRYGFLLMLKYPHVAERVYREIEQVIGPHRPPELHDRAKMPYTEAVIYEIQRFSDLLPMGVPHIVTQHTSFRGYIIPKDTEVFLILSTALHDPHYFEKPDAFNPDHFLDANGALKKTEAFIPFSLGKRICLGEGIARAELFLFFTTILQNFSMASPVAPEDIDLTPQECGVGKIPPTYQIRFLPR
Sequence of CYP 2C9 (P11712 whole entry): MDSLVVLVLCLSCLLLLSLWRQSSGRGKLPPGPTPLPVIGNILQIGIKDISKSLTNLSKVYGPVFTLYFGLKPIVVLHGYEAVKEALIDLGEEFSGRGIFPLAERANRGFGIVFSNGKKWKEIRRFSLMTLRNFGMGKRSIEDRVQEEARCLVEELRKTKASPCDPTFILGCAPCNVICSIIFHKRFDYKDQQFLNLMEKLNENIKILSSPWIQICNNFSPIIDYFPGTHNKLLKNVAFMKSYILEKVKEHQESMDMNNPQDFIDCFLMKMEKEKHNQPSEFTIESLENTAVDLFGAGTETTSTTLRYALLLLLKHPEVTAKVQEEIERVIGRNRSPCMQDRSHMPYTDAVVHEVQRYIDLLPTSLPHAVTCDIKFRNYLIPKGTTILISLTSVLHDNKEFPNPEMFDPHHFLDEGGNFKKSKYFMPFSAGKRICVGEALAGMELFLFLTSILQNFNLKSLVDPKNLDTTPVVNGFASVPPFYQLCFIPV
T1 sequence (Q12809 whole entry): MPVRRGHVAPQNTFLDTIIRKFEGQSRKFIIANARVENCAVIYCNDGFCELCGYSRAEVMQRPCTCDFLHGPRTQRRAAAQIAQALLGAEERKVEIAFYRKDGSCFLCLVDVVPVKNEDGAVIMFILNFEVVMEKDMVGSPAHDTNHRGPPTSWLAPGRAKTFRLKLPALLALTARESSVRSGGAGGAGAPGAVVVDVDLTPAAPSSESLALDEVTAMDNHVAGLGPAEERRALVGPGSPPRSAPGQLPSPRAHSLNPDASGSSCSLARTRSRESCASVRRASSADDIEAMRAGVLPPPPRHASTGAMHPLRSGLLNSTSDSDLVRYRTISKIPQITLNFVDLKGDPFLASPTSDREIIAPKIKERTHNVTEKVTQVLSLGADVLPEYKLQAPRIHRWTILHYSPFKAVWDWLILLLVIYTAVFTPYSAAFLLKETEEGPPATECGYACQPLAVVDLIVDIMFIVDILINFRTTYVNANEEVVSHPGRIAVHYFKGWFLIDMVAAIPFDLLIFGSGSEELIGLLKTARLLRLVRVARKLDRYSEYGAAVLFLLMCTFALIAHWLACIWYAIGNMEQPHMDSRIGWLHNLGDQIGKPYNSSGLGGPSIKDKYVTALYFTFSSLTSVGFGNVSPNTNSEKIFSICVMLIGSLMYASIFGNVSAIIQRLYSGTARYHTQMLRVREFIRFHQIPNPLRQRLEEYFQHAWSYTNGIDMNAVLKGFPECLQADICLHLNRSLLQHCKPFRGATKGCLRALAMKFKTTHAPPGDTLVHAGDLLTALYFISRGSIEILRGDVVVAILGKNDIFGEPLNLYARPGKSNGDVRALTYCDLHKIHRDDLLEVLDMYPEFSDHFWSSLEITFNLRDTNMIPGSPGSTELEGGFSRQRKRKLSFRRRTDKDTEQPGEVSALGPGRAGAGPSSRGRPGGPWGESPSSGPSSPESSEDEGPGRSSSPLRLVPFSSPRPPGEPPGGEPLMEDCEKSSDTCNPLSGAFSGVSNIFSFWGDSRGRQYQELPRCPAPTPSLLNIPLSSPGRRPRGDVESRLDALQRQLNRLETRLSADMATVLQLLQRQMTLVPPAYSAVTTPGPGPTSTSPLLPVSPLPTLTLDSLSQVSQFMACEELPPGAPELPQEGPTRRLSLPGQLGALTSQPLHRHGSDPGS

COc1ccc(CO[C@H]2CC[C@@]3(C)C(=CC[C@H]4[C@@H]5CC[C@H](C(C)=O)[C@@]5(C)CC[C@@H]43)C2)cc1 [3pMBP, 3β-(4-methoxybenzyloxy)pregn-5-en-20-one]
Inhibition of CYP 2C9 activity [1]: no significant inhibition
Plasma concentrations of testosterone, DHEA and allopregnanolone [2]: no effect
fraction unbound [3]: 0.01 to 0.03
Activity of P-gp [4]: did not modify the activity
Respiration [5]: did not modify
Activity of OAT3 [6]: did not modify the activity
Body weight in obese mice [7]: but not 3pMBP (0.005, 0.015, 0.05, 5 and 15 mg/kg; per os), decreases body weight
% inhibition [8, 16]: 100%
ID50 [8, 16]: 0.015 mg/kg
ID100 [8, 16]: 0.05 mg/kg
ID50 ([8]; per os, THC 1 mg/kg): ≈ 15 μg/kg
ID100 ([8]; per os, THC 1 mg/kg): ≈ 50 μg/kg
AUC in the brain vs plasma ([9]; conclusion sentence, species and dose not stated): four times higher AUC in the brain than in the plasma
tmax in the brain ([9]; mice, per os): 7 h
half-life [10]: 0.89 h
microsomal CLint ([10]; read-out: intrinsic clearance): 26 µL/min/mg
bioavailability [11]: 68%
bioavailability ([11]; both sexes, dog, plasma, oral, 0.7 mg/kg, read-out: bioavailability): ~68%
Tmax ([11]; both sexes, dog, po, per os, 0.7 mg/kg, plasma, read-out: Tmax): ~3 h
AUClast ([11]; iv, 0.7 mg/kg, plasma): 2192 ng·h/mL
Cmax ([11]; iv, 0.7 mg/kg, plasma): 505 ng/mL
Tmax ([11]; iv, 0.7 mg/kg, plasma): 0.125 h
T1/2 ([11]; iv, 0.7 mg/kg, plasma): 35.9 h
AUClast ([11]; per os, 0.7 mg/kg, plasma): 1452.5 ng·h/mL
Cmax ([11]; per os, 0.7 mg/kg, plasma): 137.7 ng/mL
Tmax ([11]; per os, 0.7 mg/kg, plasma): 2.67 h
T1/2 ([11]; per os, 0.7 mg/kg, plasma): 28.0 h
Tmax [12]: 7 h
hERG tail currents [13]: did not modify hERG (human ether-ago-go-related gene) tail currents
% inhibition [14]: 100%
ID100 [14]: 100 nM
Inhibition of CYP 2B6 activity [15]: no significant inhibition
